For series [1] the following is noted: literature; cited from earlier work.
For series [2] the following is noted: dicamba active ingredient; cited from earlier work.
The conditions of series [3]: cited from earlier work.
A short description of series [4]: Volatility test of the active ingredient. The note with it: 200 mL deionized water, 92 mg active ingredient, stirred open at 300 rpm, over 4 days, FIG. 6. The series is classed as physicochemical.
Experimental: The procedure involved the use of three solutions: • Solution A: formulation of the following patent suspended in 200 mL of deionized water; • Solution B: pure dicamba active ingredient, dissolved in 200 mL of deionized water; • Solution C: 200 mL of deionized water.
All the previous solutions were stirred without lids, caps or parafilm that would hinder the evaporation. The characterization took place by sampling the solutions every 24 hours and analysing them with a spectrophotometer. The withdrawn amount was replenished with deionized water.
Some specifications: • the clay suspended in solution A has an active ingredient content by weight of approximately 92 mg; • in order to make a comparison, and therefore to evaluate whether the formulation actually makes the dicamba less volatile, the amount by weight of the active ingredient inserted in solution B is identical to that adsorbed on the clay, that is 92 mg; • the weighing of the solutions, to evaluate the amount of evaporated substance, also includes the contribution of water. […]

The values below come from US20220217975A1, “GREEN FORMULATION TO REDUCE VOLATILITY AND LEACHING OF PESTICIDES” (POLITECNICO DI TORINO, priority 2019, published 2022).

Converted amounts (≈) assume the structure as drawn. Like-named read-outs stand apart in the source and are kept apart here.

`COc1c(Cl)ccc(Cl)c1C(=O)O` [dicamba, 3,6-dichloro-2-methoxybenzoic acid]: the “half-life time, most frequently reported values” in series [1] is given as “lower than 20 days”. Moreover, in series [2], the vapour pressure is reported as 2.6·10^−8 atm. For the same compound, the solubility in water in series [3] (pH approximately 2 (no pH adjustment)) is recorded as around 8 g/L (≈ 36.2 mM); in series [3] (pH values higher than 4.1) it was above 250 g/L. The “herbicide loss by volatilization (in words)” value in series [4] was “initial rapid volatilization and to a subsequent slow and progressive loss in mass”.
